Assay results: ChEMBL document CHEMBL1137024, “Acyl-CoA: cholesterol acyltransferase inhibitory activities of fatty acid amides isolated from Mylabris phalerate Pallas” (Bioorg Med Chem Lett, 2004)

Key:
[1] = target: Sterol O-acyltransferase 2 (Homo sapiens, UniProt O75908); test: Inhibitory activity against human Acyl coenzyme A:cholesterol acyltransferase 2
[2] = target: T1, Sterol O-acyltransferase 1 (Homo sapiens, UniProt P35610); test: Inhibitory activity against human Acyl coenzyme A:cholesterol acyltransferase 1
T1 sequence (P35610 whole entry): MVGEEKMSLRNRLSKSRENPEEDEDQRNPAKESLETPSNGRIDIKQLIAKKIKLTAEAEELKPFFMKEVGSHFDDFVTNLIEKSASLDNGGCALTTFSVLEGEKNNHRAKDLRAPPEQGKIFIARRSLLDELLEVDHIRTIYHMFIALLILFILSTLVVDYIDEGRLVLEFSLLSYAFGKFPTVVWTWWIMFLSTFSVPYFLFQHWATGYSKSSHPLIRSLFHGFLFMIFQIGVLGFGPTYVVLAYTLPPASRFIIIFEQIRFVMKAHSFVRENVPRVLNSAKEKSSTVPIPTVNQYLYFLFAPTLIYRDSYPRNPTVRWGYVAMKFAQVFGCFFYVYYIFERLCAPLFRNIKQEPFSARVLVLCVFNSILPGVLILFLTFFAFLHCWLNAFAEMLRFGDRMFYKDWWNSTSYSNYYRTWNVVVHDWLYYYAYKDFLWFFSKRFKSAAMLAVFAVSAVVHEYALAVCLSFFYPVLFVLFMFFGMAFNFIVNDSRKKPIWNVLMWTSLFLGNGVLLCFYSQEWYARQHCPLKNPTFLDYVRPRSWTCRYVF

[3] = target: T2, Sterol O-acyltransferase 1 (Rattus norvegicus, UniProt O70536); test: Inhibitory activity against rat liver microsomal Acyl coenzyme A:cholesterol acyltransferase
T2 sequence (O70536 whole entry): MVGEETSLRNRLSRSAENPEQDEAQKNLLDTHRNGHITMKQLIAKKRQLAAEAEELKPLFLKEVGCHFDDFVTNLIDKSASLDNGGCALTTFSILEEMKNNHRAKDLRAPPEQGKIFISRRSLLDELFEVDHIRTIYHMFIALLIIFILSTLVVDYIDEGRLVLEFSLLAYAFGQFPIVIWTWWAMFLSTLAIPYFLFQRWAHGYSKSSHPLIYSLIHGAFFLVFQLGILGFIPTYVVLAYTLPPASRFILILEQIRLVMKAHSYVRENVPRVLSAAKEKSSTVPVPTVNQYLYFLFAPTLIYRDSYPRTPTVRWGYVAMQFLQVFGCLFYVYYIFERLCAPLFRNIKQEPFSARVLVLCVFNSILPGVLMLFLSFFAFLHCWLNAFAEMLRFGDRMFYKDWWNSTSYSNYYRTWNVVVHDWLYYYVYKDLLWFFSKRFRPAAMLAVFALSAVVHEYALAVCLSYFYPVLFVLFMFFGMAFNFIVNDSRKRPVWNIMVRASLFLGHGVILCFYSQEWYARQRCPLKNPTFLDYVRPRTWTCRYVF

Chain of Sterol O-acyltransferase 2 (O75908 whole entry, looked up): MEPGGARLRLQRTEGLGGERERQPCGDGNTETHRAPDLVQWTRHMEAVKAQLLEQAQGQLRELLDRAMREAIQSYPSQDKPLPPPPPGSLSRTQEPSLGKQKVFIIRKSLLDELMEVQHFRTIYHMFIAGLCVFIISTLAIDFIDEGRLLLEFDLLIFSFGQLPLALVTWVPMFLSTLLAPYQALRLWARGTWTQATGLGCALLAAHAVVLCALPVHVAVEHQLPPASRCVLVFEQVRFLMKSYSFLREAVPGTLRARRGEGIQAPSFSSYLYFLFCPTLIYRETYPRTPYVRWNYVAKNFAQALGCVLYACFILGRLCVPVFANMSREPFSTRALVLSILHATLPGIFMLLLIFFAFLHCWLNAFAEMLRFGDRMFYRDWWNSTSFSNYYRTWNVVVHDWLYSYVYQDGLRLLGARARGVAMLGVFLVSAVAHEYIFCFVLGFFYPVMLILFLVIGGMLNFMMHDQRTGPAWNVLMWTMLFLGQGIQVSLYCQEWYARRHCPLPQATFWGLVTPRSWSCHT

Row | IC50 [1] | IC50 [2] | IC50 [3] | SMILES
1 | > 1000 µM | > 1000 µM | > 1000 µM | CCCCC/C=C\C/C=C\CCCCCCCC(=O)O [LINOLEIC ACID]
2 | > 1000 µM | > 1000 µM | > 1000 µM | CCCCCCCC/C=C\CCCCCCCC(=O)O [OLEIC ACID]

Row | SMILES | IC50 [1] | IC50 [2] | IC50 [3]
3 | CC(=O)OC[C@@]1(C)[C@@H]2C[C@H](OC(C)=O)[C@@]3(C)Oc4cc(-c5cccnc5)oc(=O)c4[C@H](O)[C@@H]3[C@@]2(C)CC[C@@H]1OC(C)=O [PYRIPYROPENE A] | – | – | 0.17 µM
